Experimental data as given in publication PMC9128828 (Nature medicine, 2021).

Columns and labels:
[1] = Safety; format: in vivo, human; conditions: for All-cause adverse event: Anemia / All-cause adverse event: Any / All-cause adverse event: Arthralgia / All-cause adverse event: Back pain / All-cause adverse event: Blood creatinine increased / All-cause adverse event: Constipation / All-cause adverse event: Cough / All-cause adverse event: Dehydration / All-cause adverse event: Diarrhea / All-cause adverse event: Dizziness / All-cause adverse event: Dyspnea / All-cause adverse event: Edema peripheral / All-cause adverse event: Fatigue / All-cause adverse event: Headache / All-cause adverse event: Hyperkalemia / All-cause adverse event: Hypoxia / All-cause adverse event: Nausea / All-cause adverse event: Vomiting: ccRCC cohort (n = 55)
[2] = tested on: mouse xenograft models; conditions: cited from earlier work
[3] = tested on: advanced solid tumors; test: Anti-tumor activity per RECIST v1.1, dose-escalation cohort; format: in vivo, human
[4] = Plasma pharmacokinetics of belzutifan, phase 1 study; format: in vivo, human
[5] = previous study; cited from earlier work
[6] = tested on: erythropoietin; test: Pharmacodynamics: plasma erythropoietin, phase 1 study; format: in vivo, human; conditions: all dose levels
[7] = tested on: previously treated advanced ccRCC; test: Anti-tumor activity per RECIST v1.1, ccRCC cohort; format: in vivo, human
[8] = Safety and dose-limiting toxicities, dose-escalation cohort; format: in vivo, human
[9] = ccRCC cohort n = 55, all grade 3
[10] = RECIST v1.1, ccRCC cohort, n = 55

CS(=O)(=O)c1ccc(Oc2cc(F)cc(C#N)c2)c2c1[C@H](O)[C@H](F)[C@@H]2F [belzutifan, 3-[(1 S,2 S,3 R)-2,3-difluoro-1-hydroxy-7-methylsulfonylindan-4-yl]oxy-5-fluorobenzo nitrile]
Patients with anemia who received exogenous erythropoietin ([1]; 28 of 42 patients with anemia): 67%
All-cause adverse event: Anemia ([1]; All grades or 2): 42 (76) no. (%)
All-cause adverse event: Any ([1]; All grades or 2): 55 (100) no. (%)
All-cause adverse event: Arthralgia ([1]; All grades or 2): 14 (25) no. (%)
All-cause adverse event: Back pain ([1]; All grades or 2): 12 (22) no. (%)
All-cause adverse event: Blood creatinine increased ([1]; All grades or 2): 14 (25) no. (%)
All-cause adverse event: Constipation ([1]; All grades or 2): 12 (22) no. (%)
All-cause adverse event: Cough ([1]; All grades or 2): 17 (31) no. (%)
All-cause adverse event: Dehydration ([1]; All grades or 2): 11 (20) no. (%)
All-cause adverse event: Diarrhea ([1]; All grades or 2): 12 (22) no. (%)
All-cause adverse event: Dizziness ([1]; All grades or 2): 13 (24) no. (%)
All-cause adverse event: Dyspnea ([1]; All grades or 2): 27 (49) no. (%)
All-cause adverse event: Edema peripheral ([1]; All grades or 2): 15 (27) no. (%)
All-cause adverse event: Fatigue ([1]; All grades or 2): 39 (71) no. (%)
All-cause adverse event: Headache ([1]; All grades or 2): 14 (25) no. (%)
All-cause adverse event: Hyperkalemia ([1]; All grades or 2): 12 (22) no. (%)
All-cause adverse event: Hypoxia ([1]; All grades or 2): 17 (31) no. (%)
All-cause adverse event: Nausea ([1]; All grades or 2): 20 (36) no. (%)
All-cause adverse event: Vomiting ([1]; All grades or 2): 16 (29) no. (%)
All-cause adverse event: Anemia ([1]; Grade 1): 27 (49) no. (%)
All-cause adverse event: Any ([1]; Grade 1): 16 (29) no. (%)
All-cause adverse event: Arthralgia ([1]; Grade 1): 14 (25) no. (%)
All-cause adverse event: Back pain ([1]; Grade 1): 11 (20) no. (%)
All-cause adverse event: Blood creatinine increased ([1]; Grade 1): 13 (24) no. (%)
All-cause adverse event: Constipation ([1]; Grade 1): 12 (22) no. (%)
All-cause adverse event: Cough ([1]; Grade 1): 17 (31) no. (%)
All-cause adverse event: Dehydration ([1]; Grade 1): 10 (18) no. (%)
All-cause adverse event: Diarrhea ([1]; Grade 1): 12 (22) no. (%)
All-cause adverse event: Dizziness ([1]; Grade 1): 13 (24) no. (%)
All-cause adverse event: Dyspnea ([1]; Grade 1): 24 (44) no. (%)
All-cause adverse event: Edema peripheral ([1]; Grade 1): 15 (27) no. (%)
All-cause adverse event: Fatigue ([1]; Grade 1): 36 (65) no. (%)
All-cause adverse event: Headache ([1]; Grade 1): 13 (24) no. (%)
All-cause adverse event: Hyperkalemia ([1]; Grade 1): 11 (20) no. (%)
All-cause adverse event: Hypoxia ([1]; Grade 1): 8 (15) no. (%)
All-cause adverse event: Nausea ([1]; Grade 1): 19 (35) no. (%)
All-cause adverse event: Vomiting ([1]; Grade 1): 16 (29) no. (%)
All-cause adverse event: Anemia ([1]; Grade 3): 15 (27) no. (%)
All-cause adverse event: Any ([1]; Grade 3): 33 (60) no. (%)
All-cause adverse event: Arthralgia ([1]; Grade 3): 0 (0) no. (%)
All-cause adverse event: Back pain ([1]; Grade 3): 1 (2) no. (%)
All-cause adverse event: Blood creatinine increased ([1]; Grade 3): 1 (2) no. (%)
All-cause adverse event: Constipation ([1]; Grade 3): 0 (0) no. (%)
All-cause adverse event: Cough ([1]; Grade 3): 0 (0) no. (%)
All-cause adverse event: Dehydration ([1]; Grade 3): 1 (2) no. (%)
All-cause adverse event: Diarrhea ([1]; Grade 3): 0 (0) no. (%)
All-cause adverse event: Dizziness ([1]; Grade 3): 0 (0) no. (%)
All-cause adverse event: Dyspnea ([1]; Grade 3): 3 (5) no. (%)
All-cause adverse event: Edema peripheral ([1]; Grade 3): 0 (0) no. (%)
All-cause adverse event: Fatigue ([1]; Grade 3): 3 (5) no. (%)
All-cause adverse event: Headache ([1]; Grade 3): 1 (2) no. (%)
All-cause adverse event: Hyperkalemia ([1]; Grade 3): 1 (2) no. (%)
All-cause adverse event: Hypoxia ([1]; Grade 3): 9 (16) no. (%)
All-cause adverse event: Nausea ([1]; Grade 3): 1 (2) no. (%)
All-cause adverse event: Vomiting ([1]; Grade 3): 0 (0) no. (%)
All-cause adverse event: Anemia ([1]; Grade 4): 0 (0) no. (%)
All-cause adverse event: Any ([1]; Grade 4): 2 (4) no. (%)
All-cause adverse event: Arthralgia ([1]; Grade 4): 0 (0) no. (%)
All-cause adverse event: Back pain ([1]; Grade 4): 0 (0) no. (%)
All-cause adverse event: Blood creatinine increased ([1]; Grade 4): 0 (0) no. (%)
All-cause adverse event: Constipation ([1]; Grade 4): 0 (0) no. (%)
All-cause adverse event: Cough ([1]; Grade 4): 0 (0) no. (%)
All-cause adverse event: Dehydration ([1]; Grade 4): 0 (0) no. (%)
All-cause adverse event: Diarrhea ([1]; Grade 4): 0 (0) no. (%)
All-cause adverse event: Dizziness ([1]; Grade 4): 0 (0) no. (%)
All-cause adverse event: Dyspnea ([1]; Grade 4): 0 (0) no. (%)
All-cause adverse event: Edema peripheral ([1]; Grade 4): 0 (0) no. (%)
All-cause adverse event: Fatigue ([1]; Grade 4): 0 (0) no. (%)
All-cause adverse event: Headache ([1]; Grade 4): 0 (0) no. (%)
All-cause adverse event: Hyperkalemia ([1]; Grade 4): 0 (0) no. (%)
All-cause adverse event: Hypoxia ([1]; Grade 4): 0 (0) no. (%)
All-cause adverse event: Nausea ([1]; Grade 4): 0 (0) no. (%)
All-cause adverse event: Vomiting ([1]; Grade 4): 0 (0) no. (%)
Patients requiring dose reductions or discontinuations for anemia ([1]; ccRCC cohort): No patients
Patients with at least one adverse event ([1]; ccRCC cohort): All patients
Treatment-related grade 4 or 5 events ([1]; ccRCC cohort): No treatment-related grade 4 or 5 events occurred
Treatment-related adverse event: anemia ([1]; ccRCC cohort n = 55): 71%
Treatment-related adverse event: hypoxia ([1]; ccRCC cohort n = 55): 18%
Treatment-related adverse event: nausea ([1]; ccRCC cohort n = 55): 15%
Treatment-related adverse event: peripheral edema ([1]; ccRCC cohort n = 55): 16%
Grade ≥3 treatment-emergent adverse event: anemia [1, 9]: 27%
Grade ≥3 treatment-emergent adverse event: hypoxia [1, 9]: 16%
Patients requiring dose reductions because of treatment-related adverse events ([1]; ccRCC cohort, five patients): 9%
Patients who discontinued after treatment-related adverse events ([1]; ccRCC cohort, two patients, both hypoxia): 4%
Patients with grade 5 adverse events ([1]; ccRCC cohort, disease progression, malignant neoplasm progression, acute kidney injury, cardiac arrest): four patients
Potency relative to MK-3795 ([2]; mouse xenograft models): approximately ten-fold more potent than MK-3795
Responses (all partial) ([3]; 120 mg once daily, one of six patients): 17%
Responses (all partial) ([3]; 120 mg twice daily, one of six patients): 17%
Responses (all partial) ([3]; 160 mg once daily, two of six patients): 33%
Median duration of response ([3]; any dose cohort, patients who had a response): not reached
Dose-normalized area under the concentration curve from time 0 to the end of the dosing period, dependence on dose ([4]; 20–240 mg once daily): increased with dose from 20 to 120 mg but decreased from 120 to 240 mg once daily
Mean accumulation ratio ([4]; 120-mg twice-daily dosing): 2.4
Increase in maximum concentration ([4]; 240-mg once-daily cohort compared to 120-mg once-daily expansion cohort): 38%
Median time to maximum observed plasma concentration ([4]; across dose levels, oral): 1.0 to 2.0 h
half-life ([4]; human, in vivo, po): 11.2 to 21.5 h
Mean accumulation ratio ([4]; once-daily dosing): 1.3–1.5
Exposure to belzutifan, dependence on dose [5]: increased with doses up to 120 mg once daily
Change in plasma erythropoietin [6]: reductions
Patients with target lesion size reduced from baseline ([7]; 35 of 52 patients with baseline and post-baseline imaging): 67%
Median progression-free survival ([7]; IMDC favorable risk): not reached
Complete response [7, 10]: 0 (0) no. (%)
Non-evaluable [7, 10]: 3 (5) no. (%)
Partial response [7, 10]: 14 (25) no. (%)
Progressive disease [7, 10]: 8 (15) no. (%)
Stable disease [7, 10]: 30 (54) no. (%)
Median duration of response ([7]; ccRCC cohort): not reached
Disease control rate ([7]; ccRCC cohort n = 55, 120 mg once daily): 80%
Objective response rate ([7]; ccRCC cohort n = 55, 120 mg once daily, all partial responses): 25%
Median progression-free survival ([7]; ccRCC cohort, 95% CI 7.3–not reached, Kaplan–Meier): 14.5 months
Responders with duration of response ≥6 months ([7]; ten of 14 responders): 71%
Patients with treatment-related dose-limiting toxicity ([8]; 120 mg twice daily, one of six patients, grade 3 hypoxia): 17%
Patients with treatment-related dose-limiting toxicity ([8]; 240 mg orally, one of seven patients, grade 4 thrombocytopenia): 14%
Maximum tolerated dose ([8]; dose-escalation cohort): not reached
Dose-limiting toxicities ([8]; doses up to 160 mg once daily): no dose-limiting toxicities

CS(=O)(=O)c1ccc(Oc2cc(F)cc(C#N)c2)c2c1[C@H](O)C(F)(F)C2 [MK-3795, reference compound]
Tumor regression ([2]; xenograft models): significant tumor regression
